This is an account of results in patent US20190185865A1, “USE OF PROKARYOTIC TRANSCRIPTIONAL ACTIVATORS AS METABOLITE BIOSENSORS IN EUKARYOTIC CELLS” (Danmarks Tekniske Universitet, priority 2016, published 2019).

Series [1] concerns the target T1, ArgP (Escherichia coli, UniProt P0A8S1).
T1 construct: expressed in transfected cells; host or cells: Saccharomyces cerevisiae CEN.PK113-5A; REV1p or TDH3p, chromosomal integration (TISNO-66/-73)
As to the kind of experiment: L-arginine induction of ArgP-mediated GFP expression in yeast. The format is cell-based. Particulars: 30 mM L-arginine. The method, then: (§1) Events were analyzed using FlowJo software (TreeStar Inc.).
(§2) The genetic device developed in this study represents to the best of our knowledge the first example of transplanting a prokaryotic transcriptional activator into a eukaryotic chassis and successfully using it to activate gene expression without the need for modifying the protein beyond codon optimization. […] To test the generality of the biosensor design for onboarding other small-molecule binding transcriptional activators as biosensors in yeast we selected four other candidates from the LTTR family; FdeR from Herbaspirillum seropedicae, PcaQ from Sinorhizobium meliloti, ArgP from Escherichia coli, and MdcR from Klebsiella pneumonia, with co-inducers naringenin, protocatechuic acid (PCA), L-arginine, and malonic acid, respectively. In this proof-of-principle study we selected the four candidates based on a minimal set of information, including knowledge about operator sequences, experimental evidence for ligand-inducible control of target operons, and their mode-of-action within native chassis (ie. activation, FIG. 1). Furthermore all of these metabolites can passively diffuse across the yeast plasma membrane, with the exception of malonic acid, which requires the expression of the dicarboxylic acid transporter MAE1 from Schizosaccharomyces pombe. […]

For series [2], the system named is MdcR. The experiment in a line: Malonic acid induction of MdcR-mediated GFP expression in yeast. The format is cell-based. The following applies: MdcR from TDH3 promoter, MAE1 transporter; 10 mM malonic acid. The method, then: as §1, §2
A short description of series [3]: Solubility in growth medium. It counts as physicochemical. The following applies: aqueous buffer, read-out: concentrations of naringenin soluble in growth medium.
The test system of series [4] is FdeR. As to the kind of experiment: Naringenin induction of FdeR-mediated GFP expression in yeast. The format is cell-based, Saccharomyces cerevisiae.
Source text: Strains, chemicals and media. Saccharomyces cerevisiae CEN.PK102-5B (MATa ura3-52 his3Δ1 leu2-3/112 MAL2-8^c SUC2), CEN.PK113-5A (MATa, trp1 his3Δ1 leu2-3/112 MAL2-8^c SUC2) and CEN.PK113-7D (wild type, MATa MAL2-8^c SUC2) strains were obtained from Peter Kotter (Johann Wolfgang Goethe-University Frankfurt, Germany). In principal any other yeast strains may be used, such as one obtained from public repository EuroScarf. EasyClone plasmids used in this work are described in Jensen, N. B. et al. EasyClone: method for iterative chromosomal integration of multiple genes in Saccharomyces cerevisiae. FEMS Yeast Res. 14, 238-48 (2014). Escherichia coli strain DH5a was used as a host for cloning and plasmid propagation. The chemicals and Pfu TURBO DNA polymerase were commercially obtained (Sigma-Aldrich and Agilent Technologies Inc., respectively). All acids used were >97% in purity. S. cerevisiae cells were grown at 30° C. in synthetic complete medium as well as drop-out media and agar plates were prepared using pre-mixed drop-out powders (Sigma-Aldrich). Mineral medium was freshly prepared as described previously. For all media containing diacids, 1.4 mM of the individual diacids were dissolved in mineral medium and pH adjusted to 4.5 before sterile filtration. For CCM several dilutions were made to examine the performance of the CCM biosensor. For naringenin, mineral medium was supplemented with 0, 0.05, 0.10 or 0.20 mM naringenin, dissolved in ethanol, the final ethanol concentration for each medium was 2% (v/v), and the final pH of the medium was adjusted to 6.0. E. coli cells were grown at 37° C. in Luria-Bertani (LB) medium supplemented with 100 μg/mL ampicillin.
as §1
The genetic device developed in this study represents to the best of our knowledge the first example of transplanting a prokaryotic transcriptional activator into a eukaryotic chassis and successfully using it to activate gene expression without the need for modifying the protein beyond codon optimization. […]

Series [5] relates to 209 bp_CYC1p_T1 promoter. As to the kind of experiment: LTTR-mediated activation of GFP expression from 209 bp_CYC1p_T1 reporter promoter in yeast, without ligand. Particulars: LTTR expressed from weak REV1p promoter. It counts as cell-based, Saccharomyces cerevisiae. How it is done:
as §1, §2

Series [6] has as its system 209 bp_CYC1p_T1 promoter with MdcO or ArgO. As to the kind of experiment: Cross-reactivity of LTTRs ArgP and MdcR with operators MdcO and ArgO (flow cytometry). It counts as cell-based, Saccharomyces cerevisiae. Particulars: ArgP and MdcR with 209 bp_CYC1p_T1 carrying MdcO or ArgO. The text has this: Many of the characterized LTTRs regulate operons by binding prototypic LTTR box patterns 5′-T-N11-A-3′ and 5′-TTA-N7/8-GAA-3′. In addition to transcriptional orthogonality (FIG. 3b), we therefore further tested if individual LTTRs would cross-react with operators for another LTTR. For this purpose, we expressed LTTRs ArgP and MdcR together with the 209 bp_CYC1p_T1 promoter with operators for MdcR (herein MdcO) or ArgP (herein ArgO) driving the expression of GFP. As controls we tested GFP expression from 209 bp_CYC1p_T1 promoter with MdcO or ArgO without expression of LTTRs. […] This is in agreement with another study on cross-reactivity between promoter and transcriptional regulators of the TetR family, and the fact that LTTR residues in both the conserved N-terminal DNA-binding domains and the divergent EBDs are important for DNA-binding.
(In general: A flow cytometer gives signals particle by particle.)

The test system of series [7] is yeast transcriptome. The experiment in a line: Transcriptome analysis (RNA-seq) of yeast with or without BenM^H110R, F211V, Y286N. Particulars: 24 h cultivation in the presence of CCM. It counts as cell-based, Saccharomyces cerevisiae. The method, then: To study the impact of ligand-induced BenM on genome-wide gene expression, triplicate cultures of strains MeLS0138 and MeLS0284 were grown for 24 h at 30° C. in 50 ml mineral medium pH 4.5 with 1.4 mM CCM. […] Briefly, 15 ml samples of the six cultures were harvested into a pre-chilled 50 ml tube with crushed ice and then immediately centrifuged at 4° C., 4000×rpm for 5 min. Subsequently, the pellets were resuspended in 2 ml of RNAlater® Solution (Ambion, Life Technologies) and incubated on ice for 1 h. Next, cells were pelleted by centrifugation (12,000×rpm for 10 s) and transferred to liquid nitrogen, and stored at −80° C. until further analysis. Total RNA extraction was performed using RNeasy® Mini Kit (QIAGEN). […] The quantity and quality of the RNA samples were measured using Qubit 2.0 Fluorometer using the Qubit RNA BR Assay (Thermo Fisher Scientific) and Agilent 2100 Bioanalyzer using the RNA 6000 Nano Kit (Agilent Technologies), respectively. For sequencing we used 3 μg of total RNA as input for TruSeq® Stranded mRNA Sample Preparation kit prior to sequencing on the MiSeq System using MiSeq Reagent Kit v3 150 cycles at a 2×75 bp read length configuration (Illumina) obtaining 38 M reads. […]

As to `N=C(N)NCCC[C@H](N)C(=O)O` [L-arginine], the “ligand-inducible increase in GFP expression” value in series [1] (ArgP expression controlled by REV1p) is on record as “significant ligand-inducible increase in GFP expression”. Further, in series [1] (ArgP from TDH3 promoter), the “induction of GFP expression upon addition of cognate inducer” value (shortened to “induction … of cognate inducer”) is recorded as “further induce GFP expression”.

`O=C(O)CC(=O)O` [malonic acid]: the “induction … of cognate inducer” value in series [2] is given as “further induce GFP expression”.

Consider `O=C1C[C@@H](c2ccc(O)cc2)Oc2cc(O)cc(O)c21` [naringenin], for which the solubility in series [3] was less than 200 µM. Further, the “induction … of cognate inducer” value in series [4] (FdeR from TDH3 promoter, 0.2 mM naringenin) is given as “further induce GFP expression”. For the same molecule, in series [4] (FdeR from strong TDH3 promoter, 0.2 mM naringenin, 24 h), the “maximum increase in GFP expression” value is recorded as 1.7 fold. In series [4] (FdeR from weak REV1 promoter, any of the tested naringenin concentrations), the “induction of GFP expression” value was “did not support induction of GFP expression”.

B1: ArgP: LTTR transcriptional activator from Escherichia coli, co-inducer L-arginine (protein, UniProt P0A8S1 1-297, looked up)
HTH-type transcriptional …: MKRPDYRTLQALDAVIRERGFERAAQKLCITQSAVSQRIKQLENMFGQPLLVRTVPPRPTEQGQKLLALLRQVELLEEEWLGDEQTGSTPLLLSLAVNADSLATWLLPALAPVLADSPIRLNLQVEDETRTQERLRRGEVVGAVSIQHQALPSCLVDKLGALDYLFVSSKPFAEKYFPNGVTRSALLKAPVVAFDHLDDMHQAFLQQNFDLPPGSVPCHIVNSSEAFVQLARQGTTCCMIPHLQIEKELASGELIDLTPGLFQRRMLYWHRFAPESRMMRKVTDALLDYGHKVLRQD
In the case of B1, the “activation of GFP expression compared to yeast cells without expression of an LTTR” value in series [5] is 2.2 ×. Further, the “cross-reaction of LTTR with operator for another LTTR” value in series [6] was “specificity between LTTR transcriptional activators and their inferred operator”.

B2: BenM^H110R, F211V, Y286N (protein, UniProt O68014 1-304, looked up, variant H110R F211V Y286N)
HTH-type transcriptional …: MELRHLRYFVAVVEEQSFTKAADKLCIAQPPLSRQIQNLEEELGIQLLERGSRPVKTTPEGHFFYQYAIKLLSNVDQMVSMTKRIASVEKTIRIGFVGSLLFGLLPRIIRLYRQAHPNLRIELYEMGTKAQTEALKEGRIDAGFGRLKISDPAIKRTLLRNERLMVAVHASHPLNQMKDKGVHLNDLIDEKILLYPSSPKPNFSTHVMNIVSDHGLEPTKINEVREVQLALGLVAAGEGISLVPASTQSIQLFNLSYVPLLDPDAITPIYIAVRNMEESTYIYSLNETIRQIYAYEGFTEPPNW
Turning to B2, the “average GFP transcript abundance, strain MeLS0284 compared to strain MeLS0138” value in series [7] is given as “approximately 27 fold”. Moreover, the “decrease in expression level of TCS3” value in series [7] (P<0.05, >2-fold cut-off) is given as 2.3 ×.
